Values joined by “and” are separate entries in the source; they are usually repeats but may differ in a detail not shown here. Equal values may be shown once.
Assays:
Test in all cases: Microfluidic Mobility-Shift Assay
Conditions in all cases: pH 7
[1] = target: T1, cGMP-dependent protein kinase 2 [41-418,G232E] (Human, UniProt Q13237, G232E)
T1 construct: 41-418

[2] = target: T2, Isoform Beta of cGMP-dependent protein kinase 1 [1-351,G306E] (Human, UniProt Q13976, G306E)
T2 construct: 1-351

[3] = target: T3, cGMP-dependent protein kinase 2 (Homo sapiens, UniProt Q13237)
T3 sequence (Q13237 whole entry): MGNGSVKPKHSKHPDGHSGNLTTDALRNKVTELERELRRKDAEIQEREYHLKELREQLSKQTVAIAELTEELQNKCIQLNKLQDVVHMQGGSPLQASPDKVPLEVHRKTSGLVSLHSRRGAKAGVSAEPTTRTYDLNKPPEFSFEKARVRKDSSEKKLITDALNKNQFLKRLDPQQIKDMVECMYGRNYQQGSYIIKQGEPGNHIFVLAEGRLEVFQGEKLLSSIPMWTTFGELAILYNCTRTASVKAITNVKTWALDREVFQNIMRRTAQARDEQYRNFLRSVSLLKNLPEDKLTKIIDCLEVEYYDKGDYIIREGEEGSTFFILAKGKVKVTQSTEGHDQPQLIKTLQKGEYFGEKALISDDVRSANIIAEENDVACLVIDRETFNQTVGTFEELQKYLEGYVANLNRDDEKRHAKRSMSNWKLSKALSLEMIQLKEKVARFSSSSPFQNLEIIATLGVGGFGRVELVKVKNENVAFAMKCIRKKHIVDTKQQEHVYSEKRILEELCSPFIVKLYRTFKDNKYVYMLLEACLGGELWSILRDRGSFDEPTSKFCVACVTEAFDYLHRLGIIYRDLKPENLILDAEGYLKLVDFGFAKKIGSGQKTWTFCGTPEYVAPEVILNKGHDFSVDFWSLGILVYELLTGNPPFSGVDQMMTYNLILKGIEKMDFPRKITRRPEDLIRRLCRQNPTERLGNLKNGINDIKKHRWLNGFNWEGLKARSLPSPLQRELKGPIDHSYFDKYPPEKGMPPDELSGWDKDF

[4] = target: T4, Isoform Beta of cGMP-dependent protein kinase 1 [1-351,G182E] (Human, UniProt Q13976, G182E)
T4 construct: 1-351
T4 sequence (Q13976 as listed by the source G182E): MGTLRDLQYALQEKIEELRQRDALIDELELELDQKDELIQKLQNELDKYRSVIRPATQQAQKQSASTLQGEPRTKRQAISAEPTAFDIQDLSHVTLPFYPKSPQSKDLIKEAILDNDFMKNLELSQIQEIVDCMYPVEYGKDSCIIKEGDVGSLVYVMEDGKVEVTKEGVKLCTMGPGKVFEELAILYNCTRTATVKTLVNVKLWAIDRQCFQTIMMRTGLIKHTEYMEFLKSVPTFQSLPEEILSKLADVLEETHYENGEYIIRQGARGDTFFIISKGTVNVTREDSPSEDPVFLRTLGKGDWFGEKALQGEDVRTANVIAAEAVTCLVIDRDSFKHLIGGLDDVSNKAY

[5] = target: T5, cGMP-dependent protein kinase 2 [41-418,G356E] (Human, UniProt Q13237, G356E)
T5 construct: 41-418
T5 sequence (Q13237 41-418 G356E): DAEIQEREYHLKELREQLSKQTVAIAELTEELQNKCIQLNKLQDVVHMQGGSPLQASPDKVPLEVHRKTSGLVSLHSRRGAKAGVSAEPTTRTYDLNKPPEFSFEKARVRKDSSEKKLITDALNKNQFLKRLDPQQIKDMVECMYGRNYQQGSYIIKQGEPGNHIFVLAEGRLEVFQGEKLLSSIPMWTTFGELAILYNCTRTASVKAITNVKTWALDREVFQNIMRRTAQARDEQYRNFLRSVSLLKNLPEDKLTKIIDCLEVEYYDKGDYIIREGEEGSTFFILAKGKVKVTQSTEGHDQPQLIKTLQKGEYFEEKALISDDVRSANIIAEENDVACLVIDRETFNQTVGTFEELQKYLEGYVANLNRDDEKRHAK

[6] = target: T6, Isoform Beta of cGMP-dependent protein kinase 1 [5-676,G306E] (Human, UniProt Q13976, G306E)
T6 construct: 5-676
T6 sequence (Q13976 as listed by the source G306E): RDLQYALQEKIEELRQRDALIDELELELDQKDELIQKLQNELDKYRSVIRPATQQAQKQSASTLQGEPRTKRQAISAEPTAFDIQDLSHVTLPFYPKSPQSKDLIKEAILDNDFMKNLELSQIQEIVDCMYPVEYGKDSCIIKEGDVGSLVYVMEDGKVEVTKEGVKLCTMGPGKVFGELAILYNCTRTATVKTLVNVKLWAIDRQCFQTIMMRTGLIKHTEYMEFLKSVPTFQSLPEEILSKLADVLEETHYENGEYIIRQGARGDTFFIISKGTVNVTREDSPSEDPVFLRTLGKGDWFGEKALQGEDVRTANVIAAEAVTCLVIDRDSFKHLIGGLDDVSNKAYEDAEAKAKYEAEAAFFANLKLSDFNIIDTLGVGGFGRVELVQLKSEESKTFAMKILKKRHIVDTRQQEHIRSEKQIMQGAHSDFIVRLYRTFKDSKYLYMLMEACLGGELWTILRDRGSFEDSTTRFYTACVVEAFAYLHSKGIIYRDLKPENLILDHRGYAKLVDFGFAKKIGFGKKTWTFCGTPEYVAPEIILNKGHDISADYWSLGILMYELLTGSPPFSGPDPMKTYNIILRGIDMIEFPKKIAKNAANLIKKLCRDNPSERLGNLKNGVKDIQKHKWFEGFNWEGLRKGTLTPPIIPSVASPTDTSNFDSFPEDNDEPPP

[7] = target: T7, Isoform Beta of cGMP-dependent protein kinase 1 [1-351] (Human, UniProt Q13976)
T7 construct: 1-351
T7 sequence (Q13976 whole entry): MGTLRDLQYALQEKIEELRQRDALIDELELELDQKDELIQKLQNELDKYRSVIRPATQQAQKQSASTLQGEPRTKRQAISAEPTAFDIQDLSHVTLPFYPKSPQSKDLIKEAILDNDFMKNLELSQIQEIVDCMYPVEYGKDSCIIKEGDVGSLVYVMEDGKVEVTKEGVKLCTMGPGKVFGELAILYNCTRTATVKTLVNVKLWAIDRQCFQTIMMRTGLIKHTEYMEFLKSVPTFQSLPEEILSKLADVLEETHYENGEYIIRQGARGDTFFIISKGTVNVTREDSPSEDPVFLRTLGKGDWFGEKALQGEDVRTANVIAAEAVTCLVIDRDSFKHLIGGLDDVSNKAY

[8] = target: T8, cGMP-dependent protein kinase 2 [41-418] (Human, UniProt Q13237)
T8 construct: 41-418
T8 sequence (Q13237 whole entry): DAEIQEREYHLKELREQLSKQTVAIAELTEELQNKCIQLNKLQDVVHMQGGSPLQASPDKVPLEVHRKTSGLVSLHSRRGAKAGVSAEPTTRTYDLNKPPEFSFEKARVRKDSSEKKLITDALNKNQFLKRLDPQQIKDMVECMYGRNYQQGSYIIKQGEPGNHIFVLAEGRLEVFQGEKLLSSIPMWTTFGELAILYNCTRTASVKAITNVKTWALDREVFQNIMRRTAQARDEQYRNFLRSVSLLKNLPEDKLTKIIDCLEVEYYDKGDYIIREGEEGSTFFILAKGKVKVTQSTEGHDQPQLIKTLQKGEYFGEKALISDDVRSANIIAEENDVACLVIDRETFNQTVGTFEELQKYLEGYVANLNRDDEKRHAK

T1 sequence (Q13237 41-418 G232E): as the sequence (Q13237 41-418 G356E) above, with G192E, E316G counted along it
T2 sequence (Q13976 as listed by the source G306E): as the sequence (Q13976 as listed by the source G182E) above, with E182G, G306E counted along it

Row | EC50 [1] | EC50 [2] | EC50 [4] | EC50 [6] | EC50 [7] | Compound | EC50 [3] [nM] | EC50 [5] [nM] | EC50 [8] [nM]
1 | 1960 nM | < 2 nM | 5.8 nM | 18 nM | 3.8 nM | O=c1c2ncn([C@@H]3O[C@@H]4COP(=O)(O)O[C@H]4[C@H]3O)c2[nH]c2nc(-c3ccccc3)cn12 [PET-cGMP] | 225 | 5.3 | 193
2 | 184 nM and 116 nM | 4.2 nM and 7.7 nM | 328 nM and 206 nM | 370 nM and 249 nM | 163 nM and 212 nM | Nc1nc(=O)c2nc(Sc3ccc(Cl)cc3)n([C@@H]3O[C@@H]4COP(=O)(O)O[C@H]4[C@H]3O)c2[nH]1 [8-pCP-cGMP] | – | – | –

Row | Compound | EC50 [1] | EC50 [2] | EC50 [4] | EC50 [6] | EC50 [7] | EC50 [3] [nM] | EC50 [5] [nM] | EC50 [8] [nM]
3 | Nc1nc(O)c2nc(Br)n([C@@H]3O[C@@H]4COP(=O)(O)O[C@H]4[C@H]3O)c2n1 [2-amino-8-bromo-9-[(2R,4aR,6R,7R,7aS)-2,7-dihydroxy-2-oxotetrahydro-2H,4H-2lambda~5~-furo[3,2-d][1,3,2]dioxaphosphinin-6-yl]-1,9-dihydro-6H-purin-6-one] | 11 nM | < 2 nM | 765 nM | 206 nM | 222 nM | 58 | 30 | 20

From BindingDB's records for doi:10.1021/acschembio.7b00369 (Baylor College of Medicine, 2017)
